Laboratory results as given in ChEMBL document CHEMBL1122174, “Behavioral and serotonin receptor properties of 4-substituted derivatives of the hallucinogen 1-(2,5-dimethoxyphenyl)-2-aminopropane” (J Med Chem, 1982).
The source made the active and inactive calls. No cut-off for these calls is given here.

Assays:
[1] = target: Serotonin (5-HT) receptor; assay: Binding affinity at rat 5-hydroxytryptamine receptor.; format: protein assay
[2] = organism: Homo sapiens; assay: Hallucinogenic potency was determined in humans; format: functional
[3] = system: Rattus norvegicus; assay: Dose required to produce 50% hallucinogenic potency in rat was determined at a dose of 0.25 mg/kg; format: functional
[4] = system: Rattus norvegicus; assay: Dose required to produce 50% hallucinogenic potency in rat was determined at a dose of 0.5 mg/kg; format: functional
[5] = system: Rattus norvegicus; assay: Dose required to produce 50% hallucinogenic potency in rat was determined at a dose of 0.75 mg/kg; format: functional
[6] = system: Rattus norvegicus; assay: Dose required to produce 50% hallucinogenic potency in rat was determined at a dose of 1 mg/kg; format: functional
[7] = organism: Rattus norvegicus; assay: Dose at which the rats perform 50% appropriate drug -lever responding was determined; format: functional
[8] = system: Rattus norvegicus; assay: Number of rats responding out of 5 treated rats at a dose of 0.25 mg/Kg; format: functional
[9] = system: Rattus norvegicus; assay: Number of rats responding out of 5 treated rats at a dose of 0.5 mg/Kg; format: functional
[10] = system: Rattus norvegicus; assay: Number of rats responding out of 5 treated rats at a dose of 0.75 mg/Kg; format: functional
[11] = system: Rattus norvegicus; assay: Number of rats responding out of 5 treated rats at a dose of 1 mg/Kg; format: functional
[12] = system: Rattus norvegicus; assay: Dose required to produce 50% hallucinogenic potency in rat was determined at a dose of 0.125 mg/kg; format: functional
[13] = system: Rattus norvegicus; assay: Number of rats responding out of 5 treated rats at a dose of 0.125 mg/Kg; format: functional
[14] = system: Rattus norvegicus; assay: Dose required to produce 50% hallucinogenic potency in rat was determined at a dose of 5 mg/kg; format: functional
[15] = system: Rattus norvegicus; assay: Dose required to produce 50% hallucinogenic potency in rat was determined at a dose of 8 mg/kg; format: functional
[16] = system: Rattus norvegicus; assay: Dose required to produce 50% hallucinogenic potency in rat was determined at a dose of 2.0 mg/kg; format: functional
[17] = system: Rattus norvegicus; assay: Number of rats responding out of 5 treated rats at a dose of 10 mg/Kg; format: functional
[18] = system: Rattus norvegicus; assay: Number of rats responding out of 5 treated rats at a dose of 2 mg/Kg; format: functional
[19] = system: Rattus norvegicus; assay: Number of rats responding out of 5 treated rats at a dose of 5 mg/Kg; format: functional
[20] = system: Rattus norvegicus; assay: Number of rats responding out of 5 treated rats at a dose of 8 mg/Kg; format: functional
[21] = system: Rattus norvegicus; assay: Number of rats responding out of 5 treated rats at a dose of 9 mg/Kg; format: functional
[22] = system: Rattus norvegicus; assay: Dose required to produce 50% hallucinogenic potency in rat was determined at a dose of 9 mg/kg; format: functional
[23] = system: Rattus norvegicus; assay: Dose required to produce 50% hallucinogenic potency in rat was determined at a dose of 1.5 mg/kg; format: functional
[24] = system: Rattus norvegicus; assay: Number of rats responding out of 5 treated rats at a dose of 1.5 mg/Kg; format: functional
[25] = system: Rattus norvegicus; assay: Dose required to produce 50% hallucinogenic potency in rat was determined at a dose of 3.0 mg/kg; format: functional
[26] = system: Rattus norvegicus; assay: Dose required to produce 50% hallucinogenic potency in rat was determined at a dose of 3.5 mg/kg; format: functional
[27] = system: Rattus norvegicus; assay: Dose required to produce 50% hallucinogenic potency in rat was determined at a dose of 4 mg/kg; format: functional
[28] = system: Rattus norvegicus; assay: Dose required to produce 50% hallucinogenic potency in rat was determined at a dose of 5.0 mg/kg; format: functional
[29] = system: Rattus norvegicus; assay: Dose required to produce 50% hallucinogenic potency in rat was determined at a dose of 5.5 mg/kg; format: functional
[30] = system: Rattus norvegicus; assay: Number of rats responding out of 5 treated rats at a dose of 3.5 mg/Kg; format: functional
[31] = system: Rattus norvegicus; assay: Number of rats responding out of 5 treated rats at a dose of 4 mg/Kg; format: functional
[32] = system: Rattus norvegicus; assay: Number of rats responding out of 5 treated rats at a dose of 5.5 mg/Kg; format: functional
[33] = system: Rattus norvegicus; assay: Dose required to produce 50% hallucinogenic potency in rat was determined at a dose of 2 mg/kg; Disruption behavior; format: functional, organism-based; design: dose 2 mg/kg
[34] = system: Rattus norvegicus; assay: Dose required to produce 50% hallucinogenic potency in rat was determined at a dose of 3 mg/kg; Disruption behavior; format: functional, organism-based; design: dose 3 mg/kg
[35] = system: Rattus norvegicus; assay: Number of rats responding out of 5 treated rats at a dose of 3 mg/Kg; format: functional
[36] = system: Rattus norvegicus; assay: Dose required to produce 50% hallucinogenic potency in rat was determined at a dose of 0.2 mg/kg; format: functional
[37] = system: Rattus norvegicus; assay: Number of rats responding out of 5 treated rats at a dose of 0.20 mg/Kg; format: functional
[38] = system: Rattus norvegicus; assay: Dose required to produce 50% hallucinogenic potency in rat was determined at a dose of 4 mg/kg; Disruption behavior; format: functional, organism-based; design: dose 4 mg/kg

| SMILES | pA2 [1] | HHP [2] [mg] | DOM [3] [%] | DOM [4] [%] | DOM [6] [%] | ED50 [7] [mg/kg] | No. of animals [8] | No. of animals [9] | No. of animals [11] | No. of animals [24] | also measured |
| --- | --- | --- | --- | --- | --- | --- | --- | --- | --- | --- | --- |
| COc1cc(CC(C)N)c(OC)cc1I (racemic) | 7.49 | 0.8 | 31 | 41 | 93 | 0.42 | 5 | 5 | 5 | – | DOM [5]: 80%; No. of animals [10]: 5 |
| CCc1cc(OC)c(CC(C)N)cc1OC (racemic) | – | 1.5 | 44 | 99 | – | 0.23 | 5 | 5 | – | – | DOM [12]: 10%; No. of animals [13]: 5 |
| CCOc1cc(OC)c(CC(C)N)cc1OC (racemic) | 6.78 | 30 | – | – | – | 6.33 | – | – | – | – | DOM [14]: 16%; DOM [15]: 68%; DOM [16]: 2%; No. of animals [17]: 1; No. of animals [18]: 5; No. of animals [19]: 5; No. of animals [20]: 5; No. of animals [21]: 4; DOM [22]: 85% |
| COc1cc([N+](=O)[O-])c(OC)cc1CC(C)N (racemic) | 7.07 | – | – | 32 | 55 | 0.76 | – | 5 | 4 | 5 | DOM [23]: 87% |
| COc1cc(OC)c(OC)cc1CC(C)N (racemic) | – | 20 | – | – | – | 3.59 | – | – | – | – | DOM [25]: 20%; DOM [26]: 59%; DOM [27]: 70%; DOM [28]: 81%; DOM [29]: 90%; No. of animals [30]: 5; No. of animals [31]: 5; No. of animals [19]: 5; No. of animals [32]: 6 |
| COc1ccc(OC)c(CC(C)N)c1 (racemic) | – | 50 | – | – | – | – | – | – | – | – | ED50 [25]: 5.51 mg/kg |
| CC(N)Cc1ccccc1 (racemic) [AMPHETAMINE] | – | – | – | – | 2 | – | – | – | 5 | 3 | DOM [33]: inactive; DOM [34]: inactive; DOM [23]: 26%; No. of animals [18]: 1; No. of animals [35]: 0 |
| COc1cc(CC(C)N)c(OC)cc1Br (racemic) [BROLAMFETAMINE] | – | 0.8 | 70 | 91 | – | 0.2 | 5 | 5 | – | – | DOM [12]: 18%; DOM [36]: 51%; No. of animals [13]: 5; No. of animals [37]: 5 |
| COc1cc(CC(C)N)c(OC)cc1C (racemic) [DOM] | – | 2 | – | – | – | – | – | – | – | – | ED50 [25]: 0.44 mg/kg |
| COc1ccc(CC(C)N)cc1 (racemic) [PARA-METHOXYAMPHETAMINE] | – | – | – | 13 | 15 | – | – | 5 | 4 | 2 | DOM [38]: inactive |
